From PMC8406304, “Inhibiting Type VI Secretion System Activity with a Biomimetic Peptide Designed To Target the Baseplate Wedge Complex” (mBio, 2021)
Several values for one entry are separate records, joined by “and”; a condition that tells them apart may be missing. Equal values may be shown once. Entries after “also recorded” stand apart in the source; their conditions may differ.

What was measured:
TssK-L14A = experiment: Isothermal titration calorimetry (ITC), TssK-L14A variant; format: binding, enteroaggregative Escherichia coli (EAEC); conditions: 25 μM TssK-L14A, 1 mM wild-type BCP, 50 mM HEPES pH 7.0, 150 mM NaCl, 25°C
Experimental: (§1) To evaluate the direct interaction between the BCP and its target TssK, we performed isothermal titration calorimetry (ITC) experiments. The wild-type BCP and TssK interact with an observable affinity (KD) of 60 μM (Fig. 5A).
(§2) The working buffer for both proteins and peptide was 50 mM HEPES (pH 7.0), 150 mM NaCl to avoid buffer mismatch. The experiments were performed at 25°C using the MicroCal PEAQ-ITC instrument (Malvern Panalyticals, Malvern, UK) in duplicate with 19 injections, first with an initial injection of 0.4 μl followed by 18 injections of 2 μl. Two assays were performed. In the first, 25 μM WT TssK ligand was in the cell and 1 mM WT BCP analyte was in the syringe. In the second, 25 μM TssK L14A ligand was in the cell and 1 mM WT BCP analyte was in the syringe. The reaction was performed with a constant stirring speed of 750 rpm; each injection lasted for 4 s with a 150-s space between injections. A constant heat control (offset) was removed from the raw data to account for heat dilution before integration. The data were fitted using the One Set of Sites model in the PEAQ-ITC analysis software.

TssK [1] = experiment: Isothermal titration calorimetry (ITC), TssK-WT; format: binding, enteroaggregative Escherichia coli (EAEC); conditions: 25°C
Experimental: as §1, §2

TssK [2] = experiment: NMR peptide-TssK interaction (1H-15N HSQC, 1D 1H); format: binding, enteroaggregative Escherichia coli (EAEC)
Experimental: All NMR experiments were recorded at 300 K on a Bruker Avance-II 600 MHz spectrometer equipped with a cryoprobe at the IMM (Institut de Microbiologie de la Mediterranée) NMR platform. The 450-μl peptide sample tube was prepared at 1.8 mM in KPO4 buffer (50 mM KPO4 [pH 6.9], 150 mM NaCl) complemented with 30 μl D2O. 1D ^1H-^1H-TOCSY, ^1H-NOESY, and ^1H-^15N HSQC spectra (F2 = 2048; F1 = 128; NS = 384) (NS is the number of scans [accumulation] for the experiment; F2 is the sweep width; F1 is the Fourier number that defines the 2D spectrum dimensions and its digital resolution) were recorded using default pulse sequences as provided by the manufacturer. For the peptide-TssK interaction experiments, 200 μl of a 410 μM stock of TssK was added to the same sample tube (1.2 mM peptide and 140 μM TssK [final concentration]), and all NMR spectra were recorded with the addition of longer ^1H-^15N HSQC spectrometry (NS = 1,024). All spectra were transformed and the figures were generated using Bruker Topspin 4.0.9.

[3] = tested on: TssK-TssFGE (TssKFGE wedge complex); experiment: Biolayer interferometry (BLI), TssFGE binding to biotinylated TssK; format: biochemical, enteroaggregative Escherichia coli (EAEC)
Experimental: Streptavidin-tagged TssK was purified as described above. The TssK trimer was further polished by size exclusion chromatography using a Superose 6 10/300 GL (GE Healthcare) in 50 mM HEPES (pH 7.0), 150 mM NaCl at 0.25 ml/min. For biolayer interferometry (BLI) experiments, we used high-precision Strep (SAX) biosensors from Forté Bio (number 18-5117) on the BLItz machine (Forté Bio). The trimeric ligand TssK was biotinylated using equimolar N-hydroxysuccinimide (NHS)–polyethylene glycol 4 (PEG4)–biotin (Pierce EZ-Link; 21330) in 50 mM HEPES (pH 7.0), NaCl 150 mM for 1 h at room temperature before buffer exchange in CentriPure P2 (Generon; IRL) columns against 50 mM HEPES (pH 7.0), NaCl 150 mM to remove the excess biotin. BL21(DE3) cells were used to express the interacting analytes TssG-TssF-TssE. In addition, cells containing an empty plasmid were used as a control. Cells were broken as described above, and the clarified supernatants after centrifugation for 30 min at 20,000 × g contained the control and TssFGE lysate. Streptavidin biosensors were hydrated for 10 min in HEPES buffer before binding of the biotinylated TssK. Biotinylated TssK was loaded at 1.2 μM onto the SAX biosensors for 120 s, and then the excess TssK was dissociated in HEPES buffer for 120 s. For the remaining kinetic assays, we used kinetic buffer (PBS [pH 7.3] plus 0.02% Tween 20, 0.1% bovine serum albumin [BSA], 0.05% sodium azide) (Forté Bio number 18-5032) with orbital shaking at 2,200 rpm. Kinetic buffer (KB) was used to dilute the lysates and the peptide to decrease nonspecific signals. The unbound Strep sites were blocked with 2 μM control lysate for 120 s and washed with KB for 120 s. The kinetic assays were performed using three steps with different times: baseline, 30 s; association, 120 s; and dissociation, 120 s. All the following assays were performed in triplicate. […] In the first assay, we added 47 μM lysate expressing the analytes TssG, TssF, and TssE to the bound TssK. In the second assay, we added 1 mM wild-type (WT) BCP to the bound TssK before adding 47 μM TssF-TssG-TssE. In the third assay, to validate the specificity of the WT BCP we added 1 mM mutant BCP that lacks the binding residues to the bound TssK before adding 47 μM TssF-TssG-TssE. Last, to redemonstrate the specificity of the BCP-WT, we added 1 mM randomized BCP that contains the binding residues but out of order to the bound TssK before adding 47 μM TssF-TssG-TssE.

## SRPVMG-SRPVMG-SRPVMG (head to tail) [BCP, biomimetic cyclic peptide SRPVMG-SRPVMG-SRPVMG mimicking TssG foot 1]
TssK-L14A
  ITC binding signal with TssK-L14A: None of these conditions led to a detectable ITC binding signal; also recorded: lack of binding
TssK [1]; ITC signature plot, TssK-WT with BCP, pH 7.0
  ITC binding signature: enthalpy / ΔG: driven by a favorable enthalpy; also recorded: enthalpy-driven interaction with a favorable ΔG
TssK [1]; ITC, 25 μM TssK-WT in cell, 1 mM BCP in syringe, 50 mM HEPES pH 7.0, 150 mM NaCl, duplicate, One Set of Sites fit, read-out: observable affinity (KD)
  Kd: 60 µM
TssK [2]; 1 part TssK to 10 parts BCP (1.2 mM peptide, 140 μM TssK), 50 mM KPO4 pH 6.9, 150 mM NaCl, 300 K
  1H-15N HSQC correlations after addition of TssK: totally disappear
TssK [2]; 1 part TssK to 10 parts BCP, pH 6.9, 300 K
  1D 1H NMR peptide peaks after addition of TssK: strong broadening of the peptides peaks
[3]; BLI sensogram, control lysate signal (50 μM TssFGE lysate without bound TssK) subtracted, three independent experiments
  TssFGE binding response over time in the presence of the BCP: decreasing binding response over time
[3]; BLI, 47 μM TssFGE lysate, TssK preincubated with 1 mM peptide, kinetic buffer pH 7.3, mean ± SD of three independent assays, listed as wild-type BCP
  maximum binding average response of TssFGE to TssK at 150 s in presence of peptide: 0.121 ± 0.010 nm and 0.121 ± 0.0102 nm
[3]; BLI, 1 mM peptide, in words
  interference with TssKFGE formation: significatively interferes with the TssKFGE formation
